# Assay results from ChEMBL document CHEMBL1201862, “PubChem BioAssay data set” (2004).
# Calls of active or inactive are those of the source.
# What was measured:
# [1] = molecular target: Peroxisome proliferator-activated receptor gamma/Nuclear receptor coactivator 3 (Homo sapiens, UniProt P37231); format: functional;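 note: agonist potency for raising coactivator recruitment to the receptor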
# [2] = molecular target: Peroxisome proliferator-activated receptor gamma/Nuclear receptor coactivator 2 (Homo sapiens, UniProt P37231); format: functional;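 note: agonist potency for raising coactivator recruitment to the receptor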
# [3] = molecular target: Peroxisome proliferator-activated receptor gamma/Nuclear receptor coactivator 1 (Homo sapiens, UniProt P37231); format: functional;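 note: agonist potency as compounds enhance coactivator SRC-1 recruitment to PPARgamma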
# Peroxisome proliferator-activated receptor gamma/Nuclear receptor coactivator 1, sequence (P37231 whole entry): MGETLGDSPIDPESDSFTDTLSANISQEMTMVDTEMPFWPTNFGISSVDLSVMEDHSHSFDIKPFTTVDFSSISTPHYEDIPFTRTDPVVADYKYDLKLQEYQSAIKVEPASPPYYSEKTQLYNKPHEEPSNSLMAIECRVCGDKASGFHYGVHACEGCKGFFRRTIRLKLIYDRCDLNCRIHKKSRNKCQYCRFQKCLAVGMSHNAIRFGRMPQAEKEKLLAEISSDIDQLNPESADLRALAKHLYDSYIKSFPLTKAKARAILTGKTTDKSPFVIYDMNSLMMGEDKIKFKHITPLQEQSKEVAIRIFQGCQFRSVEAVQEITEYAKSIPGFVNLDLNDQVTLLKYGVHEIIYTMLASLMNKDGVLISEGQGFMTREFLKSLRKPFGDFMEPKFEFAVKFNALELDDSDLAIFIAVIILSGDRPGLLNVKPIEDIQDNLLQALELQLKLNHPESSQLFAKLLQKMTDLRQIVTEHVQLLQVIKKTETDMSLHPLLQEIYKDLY
# Peroxisome proliferator-activated receptor gamma/Nuclear receptor coactivator 1, sequence (Q15788 whole entry, further chain): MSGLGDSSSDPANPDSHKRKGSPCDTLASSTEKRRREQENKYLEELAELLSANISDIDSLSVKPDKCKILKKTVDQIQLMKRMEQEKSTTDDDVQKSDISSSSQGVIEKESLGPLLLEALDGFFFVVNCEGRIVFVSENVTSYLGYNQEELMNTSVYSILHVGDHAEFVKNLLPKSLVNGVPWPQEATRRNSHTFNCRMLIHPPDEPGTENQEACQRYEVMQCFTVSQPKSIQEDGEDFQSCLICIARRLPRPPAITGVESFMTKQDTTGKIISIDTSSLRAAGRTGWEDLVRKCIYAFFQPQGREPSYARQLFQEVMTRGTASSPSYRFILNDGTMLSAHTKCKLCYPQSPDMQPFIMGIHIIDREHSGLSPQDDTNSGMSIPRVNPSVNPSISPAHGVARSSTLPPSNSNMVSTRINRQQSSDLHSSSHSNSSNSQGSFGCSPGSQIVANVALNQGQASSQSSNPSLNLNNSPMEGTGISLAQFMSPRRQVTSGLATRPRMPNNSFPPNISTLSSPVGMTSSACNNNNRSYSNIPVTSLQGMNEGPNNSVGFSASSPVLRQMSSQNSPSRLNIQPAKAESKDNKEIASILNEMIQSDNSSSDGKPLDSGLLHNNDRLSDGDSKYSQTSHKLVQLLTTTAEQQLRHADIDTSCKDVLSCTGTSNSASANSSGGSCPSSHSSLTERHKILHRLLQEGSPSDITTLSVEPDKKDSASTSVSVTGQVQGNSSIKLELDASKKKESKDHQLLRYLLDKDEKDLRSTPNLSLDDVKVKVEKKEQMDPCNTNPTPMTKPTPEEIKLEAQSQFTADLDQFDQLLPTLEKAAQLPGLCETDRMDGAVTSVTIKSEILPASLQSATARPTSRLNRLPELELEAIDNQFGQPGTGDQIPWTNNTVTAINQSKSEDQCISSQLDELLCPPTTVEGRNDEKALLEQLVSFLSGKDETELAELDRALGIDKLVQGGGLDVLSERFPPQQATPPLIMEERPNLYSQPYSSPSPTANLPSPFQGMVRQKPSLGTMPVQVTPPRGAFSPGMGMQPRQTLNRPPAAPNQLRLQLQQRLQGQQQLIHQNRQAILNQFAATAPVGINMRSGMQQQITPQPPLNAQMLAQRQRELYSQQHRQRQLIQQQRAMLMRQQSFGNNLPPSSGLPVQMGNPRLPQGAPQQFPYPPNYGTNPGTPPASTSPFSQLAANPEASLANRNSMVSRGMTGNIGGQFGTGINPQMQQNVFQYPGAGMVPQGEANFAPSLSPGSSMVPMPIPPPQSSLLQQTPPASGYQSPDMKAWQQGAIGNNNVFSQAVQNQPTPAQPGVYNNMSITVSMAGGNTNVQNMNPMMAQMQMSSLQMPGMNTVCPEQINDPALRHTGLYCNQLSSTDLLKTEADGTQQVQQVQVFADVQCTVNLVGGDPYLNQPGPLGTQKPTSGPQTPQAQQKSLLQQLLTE
# [4] = molecular target: T1, Short transient receptor potential channel 4 (Mus musculus, UniProt Q9QUQ5); assay: mouse TRPC4 channel inhibitors, dose response, cell-based, HEK293 TRPC4/mu-opioid, Fluo-4 calcium (AID 434942); format: functional;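 note: potency of inhibitors blocking the TRPC4 calcium response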
# T1 sequence (Q9QUQ5 whole entry): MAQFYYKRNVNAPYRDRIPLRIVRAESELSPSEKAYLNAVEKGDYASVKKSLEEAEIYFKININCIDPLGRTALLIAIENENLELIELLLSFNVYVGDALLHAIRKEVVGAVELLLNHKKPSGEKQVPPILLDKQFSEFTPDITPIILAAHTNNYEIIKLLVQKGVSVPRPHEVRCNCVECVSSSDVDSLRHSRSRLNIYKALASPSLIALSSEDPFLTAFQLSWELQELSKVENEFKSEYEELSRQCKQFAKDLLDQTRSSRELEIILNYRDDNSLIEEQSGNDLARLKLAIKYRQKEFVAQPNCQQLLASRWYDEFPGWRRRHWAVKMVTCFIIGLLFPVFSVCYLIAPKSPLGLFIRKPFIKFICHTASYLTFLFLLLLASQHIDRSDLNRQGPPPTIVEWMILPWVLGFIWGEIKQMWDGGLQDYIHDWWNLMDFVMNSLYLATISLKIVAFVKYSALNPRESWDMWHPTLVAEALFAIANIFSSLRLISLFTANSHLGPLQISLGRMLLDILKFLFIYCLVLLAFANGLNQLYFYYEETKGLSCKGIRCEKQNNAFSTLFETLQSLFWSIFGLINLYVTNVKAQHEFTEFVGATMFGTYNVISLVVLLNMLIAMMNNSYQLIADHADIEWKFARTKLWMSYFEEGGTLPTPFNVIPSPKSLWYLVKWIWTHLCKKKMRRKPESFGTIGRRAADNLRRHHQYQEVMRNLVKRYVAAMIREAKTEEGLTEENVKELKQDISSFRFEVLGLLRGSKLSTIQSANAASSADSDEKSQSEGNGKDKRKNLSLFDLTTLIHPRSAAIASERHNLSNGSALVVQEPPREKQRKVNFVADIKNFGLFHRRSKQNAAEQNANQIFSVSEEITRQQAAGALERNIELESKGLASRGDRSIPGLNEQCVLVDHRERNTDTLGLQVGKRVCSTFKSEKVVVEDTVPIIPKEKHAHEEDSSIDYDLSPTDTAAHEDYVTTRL
# [5] = cytotoxicity in HEK-293T cells, dose response, cytotoxicity control for BCR NF-kB inhibitor project, luminescence, B-cell screen hits (AID 489021); format: functional, cell-based;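 note: HEK-293T cells carrying an NF-kB luciferase reporter; cells exposed to compound for about 14 hours before viability readout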
# [6] = molecular target: Cytochrome P450 2C19 (Homo sapiens, UniProt P33261); assay: Cytochrome panel assay with activity outcomes. Panel member name: p450-cyp2c19 Compounds with AC50 equal or less than 10 uM are considered active; format: functional; settings: read-out: AC50
# Cytochrome P450 2C19, sequence (P33261 whole entry): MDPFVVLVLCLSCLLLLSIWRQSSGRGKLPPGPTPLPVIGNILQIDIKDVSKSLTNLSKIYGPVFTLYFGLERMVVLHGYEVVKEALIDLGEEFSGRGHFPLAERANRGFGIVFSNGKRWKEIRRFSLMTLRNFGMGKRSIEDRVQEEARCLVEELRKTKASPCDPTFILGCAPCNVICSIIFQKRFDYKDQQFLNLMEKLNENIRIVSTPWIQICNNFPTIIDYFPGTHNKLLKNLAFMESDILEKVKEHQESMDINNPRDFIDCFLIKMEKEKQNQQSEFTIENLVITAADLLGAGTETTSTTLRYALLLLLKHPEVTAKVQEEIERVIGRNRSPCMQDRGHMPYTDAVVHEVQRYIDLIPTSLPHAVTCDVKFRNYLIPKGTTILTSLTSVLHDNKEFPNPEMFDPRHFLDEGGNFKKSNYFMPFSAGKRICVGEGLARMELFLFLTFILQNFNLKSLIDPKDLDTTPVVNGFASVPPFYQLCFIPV
# [7] = molecular target: Cytochrome P450 2C9 (Homo sapiens, UniProt P11712)
# Cytochrome P450 2C9, sequence (P11712 whole entry): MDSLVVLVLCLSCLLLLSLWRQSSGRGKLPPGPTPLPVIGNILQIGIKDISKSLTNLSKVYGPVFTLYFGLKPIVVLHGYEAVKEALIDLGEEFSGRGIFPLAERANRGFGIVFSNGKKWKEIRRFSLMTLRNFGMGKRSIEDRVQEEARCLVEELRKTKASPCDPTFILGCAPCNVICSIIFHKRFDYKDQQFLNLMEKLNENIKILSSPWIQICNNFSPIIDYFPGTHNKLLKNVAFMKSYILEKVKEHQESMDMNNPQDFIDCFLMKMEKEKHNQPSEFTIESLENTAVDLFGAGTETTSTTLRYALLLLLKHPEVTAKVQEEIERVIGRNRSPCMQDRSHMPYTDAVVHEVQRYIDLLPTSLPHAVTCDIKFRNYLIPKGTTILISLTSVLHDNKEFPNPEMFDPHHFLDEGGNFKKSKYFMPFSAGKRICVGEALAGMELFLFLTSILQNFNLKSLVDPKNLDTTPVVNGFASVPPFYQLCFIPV
# [8] = molecular target: Eukaryotic translation initiation factor 4E (Mus musculus, UniProt P63073); assay: eIF4E–eIF4G protein interaction inhibitors, dose response, biochemical, TR-FRET (AID 855); format: functional;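 note: potency for disrupting eIF4E binding to eIF4GI seen as loss of FRET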
# Eukaryotic translation initiation factor 4E, sequence (P63073 whole entry): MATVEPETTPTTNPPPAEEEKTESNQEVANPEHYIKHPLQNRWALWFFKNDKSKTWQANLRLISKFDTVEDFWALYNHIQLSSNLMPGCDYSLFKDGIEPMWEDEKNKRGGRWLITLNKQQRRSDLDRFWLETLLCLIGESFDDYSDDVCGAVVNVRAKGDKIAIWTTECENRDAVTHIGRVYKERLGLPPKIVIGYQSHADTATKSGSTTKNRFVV
# [9] = inhibitors of PGC1a acetylation in cells, dose response, cell-based, cherry-picked samples (AID 720514); format: functional;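 note: potency may reflect raised or lowered acetylation signal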
# [10] = molecular target: T2, Mannose-6-phosphate isomerase (Homo sapiens, UniProt P34949); assay: human PMI inhibitors, high substrate, primary screen, biochemical, fluorescence intensity, high mannose 6-phosphate (AID 1220)
# T2 sequence (P34949 whole entry): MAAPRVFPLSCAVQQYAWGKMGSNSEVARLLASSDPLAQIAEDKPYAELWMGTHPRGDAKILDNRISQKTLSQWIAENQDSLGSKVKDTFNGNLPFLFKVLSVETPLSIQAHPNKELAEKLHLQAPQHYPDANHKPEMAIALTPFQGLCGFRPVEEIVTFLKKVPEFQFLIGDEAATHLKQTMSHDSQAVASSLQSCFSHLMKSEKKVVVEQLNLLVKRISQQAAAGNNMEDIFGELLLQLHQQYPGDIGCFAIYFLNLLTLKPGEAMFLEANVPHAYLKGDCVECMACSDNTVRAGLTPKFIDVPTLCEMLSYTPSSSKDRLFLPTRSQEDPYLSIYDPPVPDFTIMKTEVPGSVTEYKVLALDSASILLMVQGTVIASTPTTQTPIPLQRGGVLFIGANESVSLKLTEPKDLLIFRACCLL
# [11] = test system: BJ; assay: cytotoxicity toward BJ-TERT-LT-ST fibroblasts, dose response, cell-based, RAS-independent, luminescence (AID 1935); format: functional; settings: Homo sapiens;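 note: BJ fibroblasts immortalized with TERT plus LT and ST oncogenes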
# [12] = test system: BJ; assay: cytotoxicity toward BJ-TERT fibroblasts, dose response, cell-based, RAS-independent, luminescence (AID 1933); format: functional; settings: Homo sapiens
# [13] = test system: BJ; assay: cells; format: functional, cell-based; settings: Homo sapiens
# [14] = cytotoxicity in HEK-293T cells, dose response, cytotoxicity control for TCR NF-kB inhibitor project, luminescence, T-cell screen hits (AID 489026); format: functional, cell-based;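 note: cells exposed to compound about 14 hours before the viability readout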
# [15] = inhibitors of firefly luciferase expression or activity, dose response, H4 neuroglioma cells, luminescence (AID 1990); format: functional, cell-based
# [16] = cytotoxicity toward DRD oncogenic fibroblasts, dose response, cell-based, non-viral oncogenic, luminescence (AID 1934); format: functional; settings: Homo sapiens
# [17] = Luminescence Cell-Based Dose Response HTS to Identify Inhibitors of 5'UTR Stem-Loop Driven Prion Protein mRNA Translation in H4 Neuroglioblastoma Cells. [Related pubchem assays: 1827 (Project Summary), 1813 (Primary HTS)]; format: functional
# [18] = inhibitors of SNCA 5'UTR-driven reporter translation, confirmation, H4 neuroglioma cells, luminescence (AID 1988); format: functional, cell-based
# [19] = molecular target: Luciferin 4-monooxygenase (Photinus pyralis, UniProt P08659); assay: firefly luciferase enzyme inhibitors, dose response, biochemical, luminescence (AID 1891)
# [20] = Luminescence Cell-Based Dose Confirmation HTS to Identify Inhibitors of Platelet Dense Granule Release. [Related pubchem assays: 1663 (Primary HTS), 1678 (Summary of Project)]; format: functional
# [21] = molecular target: T3, Caspase-6 (Homo sapiens, UniProt P55212); assay: human caspase-6 inhibitors, dose response, biochemical, VEID-R110 fluorescence, cherry-pick (AID 720632)
# T3 sequence (P55212 whole entry): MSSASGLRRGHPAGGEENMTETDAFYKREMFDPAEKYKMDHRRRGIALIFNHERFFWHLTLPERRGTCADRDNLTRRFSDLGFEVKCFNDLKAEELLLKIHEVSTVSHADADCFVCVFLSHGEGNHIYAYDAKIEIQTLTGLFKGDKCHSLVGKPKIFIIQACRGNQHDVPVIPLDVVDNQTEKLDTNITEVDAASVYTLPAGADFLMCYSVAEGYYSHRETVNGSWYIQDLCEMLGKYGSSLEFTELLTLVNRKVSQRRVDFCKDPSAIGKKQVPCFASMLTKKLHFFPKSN
# [22] = Counterscreen for activators of the function of SWI/SNF related, matrix associated, actin dependent regulator of chromatin, subfamily a, member 2 (SMARCA2, BRM): Luminescence-based cell-based high throughput dose response assay to identify non-selective compounds using the VP16 reporter assay.; format: functional
# [23] = molecular target: SWI/SNF-related matrix-associated actin-dependent regulator of chromatin subfamily A member 2 (Homo sapiens, UniProt P51531); assay: Luminescence-based cell-based high throughput dose response assay to identify activators of the function of SWI/SNF related, matrix associated, actin dependent regulator of chromatin, subfamily a, member 2 (SMARCA2, BRM).; format: functional
# [24] = molecular target: Beta-galactosidase (Escherichia coli, UniProt Q8VNN2); assay: Dose response counterscreen for EBI2 assay utilizing the enzyme, b-galactosidase.; format: functional
# [25] = molecular target: T4, Heat shock factor protein 1 (Mus musculus, UniProt P38532); assay: HSF1 potentiators in luciferase reporter cells, confirmation, cell-based, NIH3T3, luminescence, dose retest (AID 435004); format: functional;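 note: stress induced by proteasome inhibitor MG132 added 30 min after compound; luciferase reporter driven by HSF1 response element in NIH3T3 cells; actives raise luminescence as potentiators of the MG132 stress response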
# T4 sequence (P38532 whole entry): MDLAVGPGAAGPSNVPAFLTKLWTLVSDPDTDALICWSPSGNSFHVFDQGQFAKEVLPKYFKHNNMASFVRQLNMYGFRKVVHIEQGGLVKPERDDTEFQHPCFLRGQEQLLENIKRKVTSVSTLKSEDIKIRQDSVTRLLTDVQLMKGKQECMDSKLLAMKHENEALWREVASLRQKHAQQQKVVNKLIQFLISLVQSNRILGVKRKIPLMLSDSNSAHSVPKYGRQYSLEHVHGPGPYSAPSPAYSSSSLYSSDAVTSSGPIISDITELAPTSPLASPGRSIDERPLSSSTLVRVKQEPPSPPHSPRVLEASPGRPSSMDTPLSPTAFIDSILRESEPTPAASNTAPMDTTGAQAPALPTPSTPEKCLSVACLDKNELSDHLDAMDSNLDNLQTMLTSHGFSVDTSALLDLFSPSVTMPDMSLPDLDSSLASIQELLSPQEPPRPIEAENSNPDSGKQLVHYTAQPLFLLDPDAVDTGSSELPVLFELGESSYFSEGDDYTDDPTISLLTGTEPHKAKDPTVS
# Peroxisome proliferator-activated receptor gamma/Nuclear receptor coactivator 3, sequence (P37231 whole entry): as the sequence (P37231 whole entry) above
# Peroxisome proliferator-activated receptor gamma/Nuclear receptor coactivator 3, sequence (Q9Y6Q9 whole entry, further chain): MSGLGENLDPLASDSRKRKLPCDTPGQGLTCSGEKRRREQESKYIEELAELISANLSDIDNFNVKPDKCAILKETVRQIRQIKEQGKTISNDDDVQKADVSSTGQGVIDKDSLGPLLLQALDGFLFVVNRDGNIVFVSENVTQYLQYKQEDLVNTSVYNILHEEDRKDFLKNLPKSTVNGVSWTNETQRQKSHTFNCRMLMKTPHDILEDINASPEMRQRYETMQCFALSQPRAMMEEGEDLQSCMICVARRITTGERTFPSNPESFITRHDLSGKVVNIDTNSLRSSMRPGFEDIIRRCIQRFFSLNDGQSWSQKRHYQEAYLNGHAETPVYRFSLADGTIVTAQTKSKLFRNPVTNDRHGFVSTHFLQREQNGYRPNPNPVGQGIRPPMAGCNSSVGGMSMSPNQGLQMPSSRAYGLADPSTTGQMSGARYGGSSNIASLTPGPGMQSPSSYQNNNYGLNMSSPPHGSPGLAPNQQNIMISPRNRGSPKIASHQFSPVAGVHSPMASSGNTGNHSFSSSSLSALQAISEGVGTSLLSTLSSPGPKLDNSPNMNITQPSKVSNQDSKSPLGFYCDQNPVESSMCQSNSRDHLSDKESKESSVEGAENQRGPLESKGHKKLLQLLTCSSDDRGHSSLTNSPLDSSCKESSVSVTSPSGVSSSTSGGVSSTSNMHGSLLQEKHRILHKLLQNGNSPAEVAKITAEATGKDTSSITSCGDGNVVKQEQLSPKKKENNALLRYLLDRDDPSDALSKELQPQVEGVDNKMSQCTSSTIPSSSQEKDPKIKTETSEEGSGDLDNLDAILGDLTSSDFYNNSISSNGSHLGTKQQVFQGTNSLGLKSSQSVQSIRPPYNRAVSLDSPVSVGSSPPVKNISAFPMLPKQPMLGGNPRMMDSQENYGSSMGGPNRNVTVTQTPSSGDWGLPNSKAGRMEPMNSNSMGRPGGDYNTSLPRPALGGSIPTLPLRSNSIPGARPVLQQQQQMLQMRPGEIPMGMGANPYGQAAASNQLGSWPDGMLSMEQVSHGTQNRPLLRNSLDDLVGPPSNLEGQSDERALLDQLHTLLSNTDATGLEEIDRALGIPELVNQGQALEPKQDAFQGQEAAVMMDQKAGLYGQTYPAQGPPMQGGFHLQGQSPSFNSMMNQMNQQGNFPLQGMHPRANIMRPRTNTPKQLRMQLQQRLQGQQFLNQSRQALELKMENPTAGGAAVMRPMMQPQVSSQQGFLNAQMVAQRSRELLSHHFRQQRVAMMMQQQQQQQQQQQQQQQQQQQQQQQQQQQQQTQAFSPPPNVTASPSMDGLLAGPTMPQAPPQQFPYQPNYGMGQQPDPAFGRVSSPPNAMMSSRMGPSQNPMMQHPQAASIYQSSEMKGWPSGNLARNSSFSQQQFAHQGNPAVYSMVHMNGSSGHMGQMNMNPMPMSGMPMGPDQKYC
smiles,measurement,setting,value
Clc1cccc2sc(N3CCN(c4ccccc4)CC3)nc12,EC50,[1],> 79.4 µM (not active)
same,EC50,[2],> 79.4 µM (not active)
same,EC50,[3],> 79.4 µM (not active)
Cc1cc(N/N=C/c2ccccc2F)c2ccccc2n1,EC50,[4],2.66 µM (active)
CCOc1cc(/C=N\Nc2nc(Nc3ccccc3)nc(N3CCOCC3)n2)ccc1OC(=O)c1ccco1,IC50,[5],> 80 µM (inactive)
COc1ccc(OC)c2c1s/c(=N\C(=O)C(C)(C)C)n2C,EC50,[1],> 79.4 µM (not active)
same,EC50,[2],> 79.4 µM (not active)
same,EC50,[3],> 79.4 µM (not active)
Cc1cc(OCC(=O)Nc2ccc(CCO)cc2)c2c(C)c(C)c(=O)oc2c1,IC50,[5],> 80 µM (inactive)
CC1CCCN(c2c3c(nc4ccccc24)CCCC3)C1 (stereo unspecified),EC50,[4],1.33 µM (active)
CC(C)CC(=O)N1CCC(N2CCN(c3ccccc3)CC2)CC1,AC50,[6],15.8 µM (inconclusive)
same,AC50,[7],14.1 µM (inconclusive)
same,IC50,[8],> 64 µM (inactive)
O=C(C[C@H]1CC[C@@H](NC(=O)c2ccccc2)[C@H](CO)O1)Nc1ccc(-c2ccccc2)cc1,AC50,[9],4.76 µM (active)
CN(C)/C=C1\Oc2ccc3ccccc3c2C1=O,IC50,[10],> 50 µM (not active)
C[C@@H]1CN([C@@H](C)CO)C(=O)c2cc(NC(=O)CCCN(C)C)ccc2O[C@@H](C)CCCCO[C@@H]1CN(C)Cc1ccc(C(F)(F)F)cc1,AC50,[9],37.9 µM (active)
O=C(Cc1sc(-c2ccccc2Cl)nc1-c1ccccc1)Nc1ccccc1,EC50,[1],11.3 µM (not active)
same,EC50,[2],6.82 µM (active)
same,EC50,[3],10 µM (not active)
Fc1cccc(-c2ccc([C@@H]3[C@@H]4CN(Cc5nccs5)C[C@H]3N4)cc2)c1,AC50,[9],17.6 µM (active)
CN(CC(=O)Nc1ccc(N2CCOCC2)cc1)Cc1c(O)ccc2ccccc12,IC50,[10],> 50 µM (not active)
Cc1ccc(/C=C2\SC(=S)N(CCC(=O)NNC(=O)c3ccncc3)C2=O)cc1,IC50,[5],> 80 µM (inactive)
COc1ccc(-n2nnnc2-c2cccc(OC)c2)cc1,EC50,[11],2.71 µM (active)
same,EC50,[12],8.48 µM (active)
same,EC50,[13],109 µM (active)
same,IC50,[14],> 80 µM (inactive)
same,EC50,[15],4.68 µM (inconclusive)
same,EC50,[16],2.04 µM (active)
same,EC50,[17],11.6 µM (active)
same,EC50,[18],0.824 µM (inconclusive)
CC1(C)Cc2c(sc3nc(NCCN4CCOCC4)n4ncnc4c23)CO1,EC50,[19],> 112 µM (not active)
same,IC50,[8],> 64 µM (inactive)
same,EC50,[20],10.8 µM (active)
O=C(c1cccc([N+](=O)[O-])c1)c1ccccn1,EC50,[11],> 150 µM (not active)
same,EC50,[12],> 150 µM (not active)
same,EC50,[13],> 150 µM (not active)
same,EC50,[16],> 150 µM (not active)
Cc1ccccc1N(C(=O)c1snc(C(N)=O)c1N)C(C(=O)NC1CCCC1)c1ccco1 (stereo unspecified),EC50,[4],2.99 µM (active)
Cc1ccc2cc(N)ccc2n1,IC50,[10],> 50 µM (not active)
same,AC50,[21],14.2 µM (active)
Cc1cc(OCC(=O)NC2CC2)c2c(C)c(C)c(=O)oc2c1,IC50,[5],> 80 µM (inactive)
C[C@H](CO)N1C[C@H](C)[C@H](CN(C)Cc2ccccc2)Oc2cc(Br)ccc2S1(=O)=O,AC50,[9],25.8 µM (active)
Cc1ccc(C(=O)CNc2ccc(Cl)cc2)cc1,EC50,[22],> 91.2 µM (inactive)
same,EC50,[23],> 91.2 µM (inactive)
same,IC50,[24],130 µM (inactive)
same,EC50,[25],> 260 µM (inactive)
